Patent US20170296568A1, “SIRTUIN GENE POTENTIATOR, AND PHARMACEUTICAL PRODUCT, COSMETIC PRODUCT, AND FOOD PRODUCT USING SAME” (MORISHITA JINTAN CO., LTD., priority 2012, published 2017)

What follows are compounds tested on hSIRT1 promoter (assay: Screening for SIRT1 enhancing polyphenol or terpenoid: hSIRT1 promoter activity (EGFP fluorescence) in Caco-2-hSIRT1p-EGFP cells). Conditions: 10 μM, 2 days after addition, relative ratio to control (PBS), FIG. 1.
Type: cell-based, human
Description: First, the promoter region (−1593 to −1 bp) of hSIRT1 (human SIRT1) was acquired using the LA-PCR method using, as a template, a human genome DNA extracted from TIG-1 cells (obtained from Institute of Development, Aging and Cancer, Tohoku University), with primers synthesized based on reported information of the hSIRT1 genomic sequence so as to synthesize primers having added AseI and NheI recognition sequences at their respective ends (hSIRT1p-AseI (SEQ ID NO: 1) and hSIRT1p-NheI (SEQ ID NO: 2)). The PCR reaction condition was at 94° C. for 1 minute, followed by at 98° C. for 20 seconds; and at 68° C. for 2 minutes, 34 cycles; and then at 72° C. for 10 minutes for extension reaction. LA-Taq from Takara Shuzo Co., Ltd. was used as the TaqDNApolymerase. The primers were synthesized by Nippon EGT based on our request.
The hSIRT1 promoter fragment obtained by the LA-PCR was subjected to TA cloning using a pGEM-T Easy vector (manufactured by Promega KK). Furthermore, the base sequence thereof was confirmed by sequencing. The hSIRT1 promoter fragment, inserted into the pGEM-T Easy vector, was cut out by digestion with the restriction enzymes AseI and NheI, and the CMV promoter of a pEGFP-C3 (manufactured by Takara Bio Inc.) was removed by digestion with AseI and NheI in a similar manner, and the hSIRT1 promoter fragment was inserted into that removed site, so that phSIRT1p-EGFP was obtained.
Transfection was performed using a LIPOFECT AMINE 2000 REAGENT (manufactured by Life Technologies) according to its protocol. On the day before the transfection, Caco-2 cells (human colonic cancer-derived cells obtained from Riken BioResource Center) were plated at 1.0×10^6 in a 10-mL dish. On the day of the transfection, phSIRT1p-EGFP (10 μg) was diluted in a serum-free OPTI-MEM medium to a volume of 750 μL, after which 15 μL of LIPOFECT AMINE Reagent was diluted in a serum-free OPTI-MEM medium to […], and they were incubated at room temperature for 5 minutes. The transfection using the LIPOFECT AMINE Reagent was performed in the absence of serum, during which the culture medium of the Caco-2 cells plated on the previous day was removed, and was replaced by 5 mL of serum-free OPTI-MEM medium. After 30 minutes of this, 1.5 mL of DNA-LIPOFECT AMINE 2000 mixture was added to each 10-mL dish. After the addition, the dish was gently shaken to mix the DNA-LIPOFECT AMINE and the OPTI-MEM. After the culture for 3 hours, the DNA-LIPOFECT AMINE mixture solution was removed, and the medium was replaced by a serum-containing culture medium. Subsequently, culture was performed under the environment at 5% CO2/95% air and 37° C. for 21 hours, and the culture medium was replaced by a new one.
Since phSIRT1p-EGFP is resistant to the drug G418, the drug G418 was added to the transfected cells to 70 μg/mL to subject them to the drug selection for a week. The culture medium was replaced by a new one every three days, and G418 was added every time at the same concentration. Accordingly, Caco-2-hSIRT1p-EGFP cells were obtained.
Caco-2-hSIRT1p-EGFP cells were plated at 0.6×10^4 cells/well in a 96-well plate. On the next day, 10 μM polyphenol or terpenoid, or control (PBS) was added to each well. At 2 days after the addition, the culture solution was aspirated, after which 100 μL of 4% paraformaldehyde was added to each well, and the plate was allowed to stand at room temperature for 10 minutes. After the plate was allowed to stand for 10 minutes, 4% paraformaldehyde was aspirated, 100 μL of Cellstain (registered trademark)-Hoechst 33342 solution (Dojindo) diluted 1/500 with PBS was added to each well, and the plate was allowed to stand at room temperature in the dark for 15 minutes and the solution was then aspirated. Then, 100 μL of PBS was added to each well, and the fluorescence intensity was measured using an IN Cell Analyzer 1000 (GE Healthcare, Amersham Place, UK). The promoter activity was represented by a relative ratio to the activity of the control.
In the case of O=C1O[C@H]2[C@@H]3OC(=O)c4cc(O)c(O)c(O)c4-c4c(O)c(O)c5oc(=O)c6c(c(O)c(O)c7oc(=O)c4c5c76)-c4c(cc(O)c(O)c4O)C(=O)OC[C@H]3OC(O)[C@@H]2OC(=O)c2cc(O)c(O)c(O)c2-c2c1cc(O)c(O)c2O (mixture of isomers) [punicalagin], the “relative hSIRT1 promoter activity” value is reported as “particularly strong hSIRT1 promoter enhancing activity”.
In the case of O=C1OC[C@H]2OC(O)[C@H](O)[C@@H](O)[C@@H]2OC(=O)c2cc(O)c(O)c(O)c2-c2c(O)c(O)c3oc(=O)c4c(c(O)c(O)c5oc(=O)c2c3c54)-c2c1cc(O)c(O)c2O (mixture of isomers) [punicalin], the “relative hSIRT1 promoter activity” value is reported as “particularly strong hSIRT1 promoter enhancing activity”.
For O=c1c(O)c(-c2ccc(O)c(O)c2)oc2cc(O)ccc12 [fisetin], the “relative hSIRT1 promoter activity” value was “particularly strong hSIRT1 promoter enhancing activity”.
For C[C@@]12C=Cc3occc3[C@H]1CC[C@@]13C[C@@H](CC[C@H]12)[C@@](O)(CO)C3 [kahweol], the “relative hSIRT1 promoter activity” value was “particularly strong hSIRT1 promoter enhancing activity”.
With O=c1oc2cc(O)ccc2c2ccc(O)cc12 [urolithin A] the “relative hSIRT1 promoter activity” value was “particularly strong hSIRT1 promoter enhancing activity”.
